Laboratory results taken from patent publication US20230398153A1, “A METHOD FOR EFFICIENT MICROGLIA REPLACEMENT” (The Board of Trustees of the Leland Stanford Junior …, priority 2020, published 2023).

Test system: PB leukocytes and brain myeloid cells
Assay: Conventional HSCT after busulfan conditioning: GFP chimerism in peripheral blood and brain
Type: in vivo, mouse
Details: busulfan 5 days, IV GFP bone marrow
Method: FIG. 1. Microglia replacement after bone marrow transplantation is a slow, inefficient and variable process. (A) Schematic overview of bone marrow transplantation (HSCT). Recipient mice were received intraperitoneal (IP) injection of busulfan for 5 days at 25 mg/kg/day (i.e. 125 mg/kg total dose) and then transplanted with GFP-expressing bone marrow cells via intravenous (IV) injection. Donor chimerism in peripheral blood (PB) and brain myeloid cells was analyzed at the indicated time points. (B and C) Donor chimerism in PB leukocytes (CD45+ cells) and brain myeloid cells (CD45+CD11b+ cells) was analyzed by flow cytometry at the indicated time point. […] GFP chimerism in PB leukocytes (B) (Mean±SEM, n=5-20/time point, ***p<0.001, ns: not significant, ANOVA). […] (F) Quantification of transplanted GFP+bone marrow cells in coronal brain sections. […] Horizontal bars represent mean values (n=3/group, 3 brain slices/animal were quantified. **p<0.01, ***p<0.001, Student's t-test). […] (H) Microglia chimerism was analyzed by flow cytometry 14 days post IV injection. […]
The reported efficiencies of microglia replacement following HSCT in mice vary greatly in the literature. […] Brain chimerism was determined by sacrificing the mice, dissociating one hemisphere for flow cytometry analysis and fixing the other hemisphere for immunofluorescence analysis (FIG. 8A-C). […]

Question: How did the “GFP+ cells in peripheral blood” value (2 weeks after transplantation, average) turn out when CS(=O)(=O)OCCCCOS(C)(=O)=O [busulfan] was run?
Answer: Its value is “about 40%”.

Question: What about the “degree of GFP chimerism among brain myeloid cells, range between mice” value (conventional HSCT without PLX5622) of the same compound?
Answer: Its value is 7.09-73.4%.
